According to patent US20160122821A1, “GENETIC MARKERS OF ANTIPSYCHOTIC RESPONSE” (SUREGENE, LLC, priority 2013, published 2016):

Tested on: Caucasian patients with schizophrenia (CATIE)
Assay: Genetic association (linear regression, additive model) of SNP alleles with MMRM-modelled change in PANSS Total Score under antipsychotic treatment, CATIE trial
Type: in vivo, human
Description: For the CATIE study, individual cases were diagnosed as having SZ based on DSM-III/IV criteria. Treatment response for all patients was assessed using the Positive and Negative Syndrome Scale (PANSS) (Kay et al., 1987; Kay et al., 1989; Leucht et al., 2005). […] To avoid possible bias in post hoc selection of a treatment response variable, the inventors used the mixed model repeated measures (MMRM) approach developed by van den Oord and coworkers (van den Oord et al., 2009). […] The design of the CATIE study, including details of consent for genetic analyses, has been described in detail by others (Lieberman et al., 2005; Stroup et al., 2003; Sullivan et al., 2008). Only retrospective genetic analyses, judged to be exempt from human studies requirements by an IRB, were conducted in the current study. Consented DNA samples were obtained from the Rutgers University Cell and DNA Repository in collaboration with […]. […] All of these patients self-reported as having exclusively European ancestry. […] Genotyping was performed on a fee for service basis according to Illumina's standard operating procedures. Raw intensity files were processed using Illumina® BeadStudio version 1.7.4 software. […] Only two of these had been previously genotyped in the CATIE sample. […] To allow comparison to previously published PGx findings for CATIE and to avoid possible bias in post-hoc selection of a treatment response variable, the inventors used the mixed model repeated measures (MMRM) approach developed by Van den Oord and coworkers (van den Oord et al., 2009; […] et al., 2011). Briefly, this method models random effects by introducing random slopes for treatment effects, allowing treatment effects to be different across subjects. The MMRM approach serves to increase the statistical power to detect genetic associations by increasing the precision in measuring change in PANSS Total Score (PANSS-T) by accounting for variance due to baseline PANSS-T, and treatment, as well as smoothing out the random fluctuations in PANSS-T between visits due to various uncontrolled variables. […] Bozeman, Mont.). Quantile-Quantile (QQ) plots were prepared using the R statistical package version 2.14.1. For comparison purposes, original CATIE-provided SNP genotypes in specific genes were evaluated using the same genetic analysis. Haplotype association integrating newly generated and original genotypes for specific regions was carried out in SVS using haplotype blocks predefined by Haploview software. […] For each of the SNPs listed the reference SNP (rs) number is provided, which provides the known sequence context for the given SNP (see, e.g., National Center for Biotechnology Information (NCBI) SNP database available on the world wide web at ncbi.nlm.nih.gov/snp).

OCCOCCN1CCN(C2=Nc3ccccc3Sc3ccccc32)CC1 [Quetiapine, quetiapine]
Beta (PANSS) (AKAP9 rs35759833 allele C, P 4.46E−02): −4.62 PANSS | Beta (PANSS) (ARSB rs25414 allele C, P 2.37E−03): −9.37 PANSS | Beta (PANSS) (ATP2B2 rs11712897 allele C, P 2.77E−02): −3.54 PANSS | Beta (PANSS) (C13orf35 rs4907727 allele C, P 2.16E−02): −3.58 PANSS | Beta (PANSS) (C15orf41 rs8027206 allele A, P 2.90E−02): −3.40 PANSS | Beta (PANSS) (CA10 rs7210687 allele C, P 2.52E−02): −3.24 PANSS | Beta (PANSS) (CA10 rs17607202 allele C, P 3.87E−02): −3.10 PANSS | Beta (PANSS) (CACNA2D3 rs9861155 allele A, P 2.07E−02): −4.28 PANSS | Beta (PANSS) (CCBE1 rs12606241 allele G, P 3.38E−02): −4.12 PANSS | Beta (PANSS) (CDH13 rs3935908 allele G, P 4.47E−02): −2.89 PANSS | Beta (PANSS) (CDH13 rs8048616 allele C, P 2.03E−02): −3.49 PANSS | Beta (PANSS) (CERK rs78424 allele A, P 2.86E−02): −3.60 PANSS | Beta (PANSS) (CHRM3 rs4659552 allele A, P 3.50E−02): −3.02 PANSS | Beta (PANSS) (CLSTN2 rs10513102 allele C, P 4.28E−02): −4.05 PANSS | Beta (PANSS) (CNTN6 rs7646412 allele A, P 2.28E−02): −4.64 PANSS | Beta (PANSS) (CNTNAP2 rs10240221 allele A, P 3.63E−02): −3.22 PANSS | Beta (PANSS) (COL22A1 rs4311658 allele G, P 2.37E−03): −5.04 PANSS | Beta (PANSS) (COL22A1 rs4442151 allele C, P 2.37E−03): −5.04 PANSS | Beta (PANSS) (CPLX2 rs2243404 allele C, P 2.25E−02): −4.30 PANSS | Beta (PANSS) (CSMD1 rs2616996 allele G, P 4.49E−02): −3.44 PANSS | Beta (PANSS) (CTNNA2 rs10201249 allele A, P 2.33E−02): −4.77 PANSS | Beta (PANSS) (CTNNA2 rs10520244 allele C, P 2.12E−02): −6.07 PANSS | Beta (PANSS) (CTNNA2 rs17018593 allele A, P 2.95E−02): −4.25 PANSS | Beta (PANSS) (DENND4C rs2666797 allele C, P 2.72E−02): −3.79 PANSS | Beta (PANSS) (DGKD rs838717 allele A, P 2.74E−02): −3.38 PANSS | Beta (PANSS) (DLC1 rs12677920 allele A, P 3.27E−02): −3.35 PANSS | Beta (PANSS) (DLG2 rs7101982 allele C, P 4.47E−02): −2.93 PANSS | Beta (PANSS) (DYNC1I1 rs17638044 allele C, P 2.39E−03): −8.72 PANSS | Beta (PANSS) (ERG rs10854385 allele A, P 3.76E−02): −4.00 PANSS | Beta (PANSS) (ESRRG rs9441544 allele C, P 2.40E−02): −4.04 PANSS | Beta (PANSS) (ETV1 rs41505 allele C, P 2.62E−03): −4.08 PANSS | Beta (PANSS) (EXOC2 rs1747599 allele G, P 4.44E−02): −3.71 PANSS | Beta (PANSS) (EXOC2 rs17135234 allele A, P 3.55E−02): −4.93 PANSS | Beta (PANSS) (FBXL2 rs6772365 allele C, P 4.07E−02): −3.45 PANSS | Beta (PANSS) (FHIT rs12636662 allele A, P 2.18E−03): −4.62 PANSS | Beta (PANSS) (FLJ38109 rs11167681 allele C, P 3.82E−02): −3.35 PANSS | Beta (PANSS) (FMN2 rs1020709 allele C, P 3.77E−02): −3.38 PANSS | Beta (PANSS) (FMNL2 rs1155779 allele C, P 2.20E−02): −3.41 PANSS | Beta (PANSS) (FOXP1 rs831440 allele C, P 3.37E−02): −3.67 PANSS | Beta (PANSS) (GALNTL4 rs4909979 allele C, P 2.49E−02): −5.30 PANSS | Beta (PANSS) (GNG2 rs1343870 allele G, P 4.37E−02): −3.12 PANSS | Beta (PANSS) (GPR116 rs9395218 allele C, P 3.77E−02): −4.73 PANSS | Beta (PANSS) (GRID2 rs1433667 allele C, P 2.84E−03): −4.87 PANSS | Beta (PANSS) (GRID2 rs1836115 allele A, P 3.01E−02): −3.53 PANSS | Beta (PANSS) (GRID2 rs13103135 allele C, P 4.20E−02): −3.66 PANSS | Beta (PANSS) (GRM8 rs17865066 allele A, P 2.61E−02): −10.79 PANSS | Beta (PANSS) (GRM8 rs17865434 allele C, P 2.61E−02): −10.79 PANSS | Beta (PANSS) (HAAO rs3755540 allele C, P 2.01E−02): −3.79 PANSS | Beta (PANSS) (INMT-FAM188B;FAM188B rs10230286 allele A, P 2.09E−02): −3.51 PANSS | Beta (PANSS) (INMT-FAM188B;FAM188B rs11972565 allele A, P 2.70E−02): −3.53 PANSS | Beta (PANSS) (ITPR2 rs11048710 allele A, P 3.74E−02): −3.75 PANSS | Beta (PANSS) (IYD rs2076286 allele A, P 4.24E−02): −6.69 PANSS | Beta (PANSS) (JAG1 rs6074164 allele A, P 3.54E−02): −4.59 PANSS | Beta (PANSS) (KCNB1 rs34467662 allele C, P 2.39E−02): −9.06 PANSS | Beta (PANSS) (KCNIP4 rs10516363 allele A, P 3.20E−02): −3.43 PANSS | Beta (PANSS) (KCNQ1 rs422314 allele C, P 3.83E−02): −3.18 PANSS | Beta (PANSS) (KCNQ3 rs17659416 allele A, P 2.67E−02): −4.39 PANSS | Beta (PANSS) (LDB2 rs3805320 allele A, P 3.90E−02): −3.16 PANSS | Beta (PANSS) (LRFN2 rs2078460 allele A, P 3.06E−02): −3.67 PANSS | Beta (PANSS) (LRP1B rs2380943 allele C, P 1.96E−02): −3.47 PANSS | Beta (PANSS) (LRP1B rs34488772 allele A, P 2.80E−02): −8.41 PANSS | Beta (PANSS) (MCPH1 rs2515509 allele C, P 2.44E−02): −5.16 PANSS | Beta (PANSS) (MSR1 rs6981231 allele C, P 2.17E−02): −7.67 PANSS | Beta (PANSS) (MYO10 rs26317 allele A, P 2.25E−02): −3.80 PANSS | Beta (PANSS) (NCAM2 rs12483671 allele A, P 4.38E−02): −3.47 PANSS | Beta (PANSS) (NLGN1 rs2861338 allele A, P 2.69E−02): −3.51 PANSS | Beta (PANSS) (NPAS3 rs927763 allele G, P 3.26E−02): −4.45 PANSS | Beta (PANSS) (NRG3 rs12767532 allele G, P 2.93E−02): −3.66 PANSS | Beta (PANSS) (OPCML rs3018407 allele A, P 2.60E−02): −3.48 PANSS | Beta (PANSS) (OPCML rs3019855 allele C, P 3.16E−02): −3.40 PANSS | Beta (PANSS) (OPCML rs3920986 allele G, P 2.33E−02): −3.72 PANSS | Beta (PANSS) (PARD3B rs7589114 allele C, P 4.08E−02): −3.18 PANSS | Beta (PANSS) (PCDH15 rs2384470 allele C, P 2.33E−03): −5.21 PANSS | Beta (PANSS) (PIKFYVE rs17699982 allele A, P 4.51E−02): −4.12 PANSS | Beta (PANSS) (PLCG2 rs4889447 allele C, P 3.48E−02): −5.77 PANSS | Beta (PANSS) (PLXDC2 rs989767 allele A, P 4.48E−02): −3.31 PANSS | Beta (PANSS) (PRKG1 rs1904018 allele C, P 2.81E−02): −3.09 PANSS | Beta (PANSS) (PTPRT rs876523 allele C, P 2.06E−02): −3.45 PANSS | Beta (PANSS) (RGS7 rs2678780 allele A, P 2.47E−03): −4.56 PANSS | Beta (PANSS) (RGS7 rs10802943 allele C, P 3.52E−02): −2.99 PANSS | Beta (PANSS) (RIMBP2 rs12305517 allele C, P 2.16E−02): −5.62 PANSS | Beta (PANSS) (ROBO2 rs1470571 allele C, P 3.50E−02): −3.69 PANSS | Beta (PANSS) (RPRD1A rs4799835 allele A, P 4.31E−02): −3.76 PANSS | Beta (PANSS) (SAMD4A rs8011374 allele C, P 3.60E−02): −3.17 PANSS | Beta (PANSS) (SDK2 rs4969114 allele A, P 2.22E−02): −3.33 PANSS | Beta (PANSS) (SGCZ rs12155874 allele A, P 3.89E−02): −3.08 PANSS | Beta (PANSS) (SHC3 rs10122011 allele C, P 2.47E−02): −3.43 PANSS | Beta (PANSS) (SLC35F3 rs12087906 allele G, P 3.30E−02): −9.04 PANSS | Beta (PANSS) (SORBS1 rs4572071 allele A, P 3.25E−02): −3.66 PANSS | Beta (PANSS) (SORBS1 rs4918911 allele C, P 4.32E−02): −3.34 PANSS | Beta (PANSS) (ST8SIA1 rs4606528 allele C, P 3.26E−02): −3.84 PANSS | Beta (PANSS) (STX11 rs3734228 allele C, P 3.21E−02): −9.67 PANSS | Beta (PANSS) (STX11 rs6912580 allele C, P 3.21E−02): −9.67 PANSS | Beta (PANSS) (TGIF1 rs12606927 allele A, P 4.02E−02): −3.49 PANSS | Beta (PANSS) (TMC1 rs10869183 allele T, P 2.41E−02): −3.43 PANSS | Beta (PANSS) (TMTC2 rs7974520 allele A, P 3.49E−02): −3.64 PANSS | Beta (PANSS) (TRIM9 rs882413 allele C, P 2.00E−02): −4.35 PANSS | Beta (PANSS) (TSC1 rs1050700 allele A, P 4.13E−02): −3.29 PANSS | Beta (PANSS) (USP10 rs2012708 allele C, P 3.86E−02): −3.05 PANSS | Beta (PANSS) (WWOX rs7203676 allele C, P 2.23E−02): −3.87 PANSS
